# Results taken from patent publication US5242783A, “Photographic material and process” (Eastman Kodak Company, priority 1992, dated 1993).
# Assay: Deblocking of ester in pH 10.0 carbonate buffer with hydroxylamine (A+C), reaction half-life and rate enhancement
# Assay type: physicochemical
# Settings: for Ratio of the A+B half-life to the A+C half-life (rate enhancement): pH 10.0, 25° C.; for reactivity with hydroxylamine vs comparisons: from Table I
# Procedure: Model studies were conducted on esters E-1 through E-6 to determine the possible rate enhancement which could be attained by using a dinucleophile rather than a mononucleophile to promote the removal from a phenolic moiety of a blocking group of this invention. Aqueous solutions A, B, and C, each containing 50% by volume of acetonitrile were prepared as follows (a separate solution A for each ester):
# Solution A: 2.5 × 10^-4 M ester (or 2.5 × 10^-5 M E-
# Solution B: 25% by volume carbonate buffer
# (pH 10.0, ionic strength 0.75);
# Solution C: Solution B with added 0.05M
# Then equal volumes of A and B (or A and C) were mixed at 25° C. to give a pH 10.0 solution and the reaction was followed by spectrophotometric measurements of the phenol (290 nm) or p-nitrophenol (402 nm) produced with time. In each case a reaction half-life (t1/2) was calculated from the equation t/1/2 =1n(2)/k, where 1n(2) is the natural logarithm of 2 and k is the pseudo first-order rate constant calculated for the reaction. Smaller half-lives thus indicate more rapid reactions. The A+B combination provides an alkaline solution in which the main reactant is hydroxide ion (a mononucleophile) while in the A.C combination the active reactant is hydroxylamine (a dinucleophile). A ratio of the A+B half-life to the A+C half-life provides a measure of rate enhancement due to participation of hydroxylamine in the deblocking reaction.
Compound,Ratio of the A+B half-life to the A+C half-life (rate enhancement),reactivity with hydroxylamine vs comparisons
CC1(C(=O)Oc2ccc([N+](=O)[O-])cc2)CN(C(=O)OCc2ccc([N+](=O)[O-])cc2)CCC1=O (centres unmarked) [Example E-3],3.6 × 10^4,–
COc1ccc(C(=O)N2CCC(=O)C(C)(C(=O)Oc3ccc([N+](=O)[O-])cc3)C2)cc1 (centres unmarked) [Example E-2],2.9 × 10^4,much more reactive with the dinucleophile hydroxylamine than are the comparisons
"CC(=O)C(C)(C)C(=O)Oc1ccccc1 [Example E-5, reference compound]",3.7 × 10^4,–
"CC(=O)CC(C)(C)C(=O)Oc1ccccc1 [Example E-6, reference compound]",1.7 × 10^2,–

# The next lines start with results.
Ratio of the A+B half-life to the A+C half-life (rate enhancement),Compound,reactivity with hydroxylamine vs comparisons
2.3 × 10^5,"CC1(C(=O)Oc2ccc([N+](=O)[O-])cc2)CCCCC1=O (centres unmarked) [Example E-4, reference compound]",–
3.8 × 10^4,CN(C(=O)N1CCC(=O)C(C)(C(=O)Oc2ccc([N+](=O)[O-])cc2)C1)c1ccccc1 (centres unmarked) [Example E-1],much more reactive with the dinucleophile hydroxylamine than are the comparisons
